{"source": "paper PMC5625810", "about": "“Chiglitazar Preferentially Regulates Gene Expression via Configuration-Restricted Binding and Phosphorylation Inhibition of PPARγ” (PPAR Research, 2017)", "molecular_target": "T1, PPARγ (Homo sapiens, UniProt P37231)", "T1 construct": "gene PPARG", "T1 sequence (P37231 231-505 limits assumed)": "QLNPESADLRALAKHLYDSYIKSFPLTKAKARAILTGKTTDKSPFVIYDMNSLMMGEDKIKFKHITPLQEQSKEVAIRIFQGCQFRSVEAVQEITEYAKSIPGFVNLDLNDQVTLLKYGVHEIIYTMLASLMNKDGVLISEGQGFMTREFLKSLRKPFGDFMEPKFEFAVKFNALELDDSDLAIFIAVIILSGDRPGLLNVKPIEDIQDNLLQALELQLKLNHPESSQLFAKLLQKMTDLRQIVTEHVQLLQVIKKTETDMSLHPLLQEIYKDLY", "assay": "AlphaScreen cofactor peptide recruitment on purified LBD ([…]); cell reporter AC50 […] separately", "format": "biochemical"}
{"smiles": "CN(CCOc1ccc(CC2SC(=O)NC2=O)cc1)c1ccccn1", "note": "(stereo not shown) [Ros, rosiglitazone]", "values": [{"measurement": "AlphaScreen cofactor peptide recruitment on purified LBD (2 μM); cell reporter A", "result": "The inhibition was partially and differentially restored upon additions of the three ligands"}]}
